This is an account of results in patent US8778937B2, “Benzimidazole boronic acid derivatives as PI3 kinase inhibitors” (GlaxoSmithKline LLC, priority 2011, dated 2014).

For test [1], the system named is phosphorylation of AKT in MDA-MB-468 tumor cells. Nature of the test: Inhibition of phosphorylation of AKT (Ser473, MSD) in PTEN deficient tumor cell line MDA-MB-468. The settings on record: Homo sapiens, 0.5 h; MDA-MB-468 cells, 30 minutes compound treatment, Ser473-pAKT normalized to total AKT. The test is classed as cell-based. As for the experimental part: Cellular Assays—Inhibition of Phosphorylation of AKT in PTEN Deficient Tumor Cell Line MDA-MB-468
Compounds were evaluated for their ability to inhibit downstream phosphorylation of AKT in MDA-MB-468 tumor cells. Breast cancer cells were plated, incubated for approximately 16-20 hours and then treated with compound for 30 minutes. Final DMSO concentration on all cells was 0.15%. The cells were washed with Tris buffer and lysed in MesoScale Discovery (MSD) lysis buffer containing protease and phosphatase inhibitors (included in MSD kit). MSD Ser473-AKT duplex plates (Cat # MS6000) were used according to the manufacturer's instructions and plates were read on a SECTOR™ Imager 6000 using MSD Workbench software. For analysis of the Ser473-pAKT concentration response curves, the data was normalized using the corresponding total AKT value (sum of pAKT and AKT signal) and plotted as the percent of the DMSO-treated control values. The data was fit in Graphpad Prism version 4 for Windows (Graphpad Software, San Diego, Calif.).
The compounds listed in Table 2 were tested generally according to the assays described herein. Table 2 lists the IC50 values for either an experimental run or an average of two or more experimental runs with the examples shown.

The subject of test [2] is MDA-MB-468. Nature of the test: Cell growth inhibition in PTEN-deficient cell line MDA-MB-468, anchorage independent, Alamar Blue. It is filed as cell-based. The settings on record: Homo sapiens, 144 h, MDA-MB-468, anchorage independent (soft agar), 6 days incubation, read-out: Prolif EC50 (nM) MDA-MB-468. The procedure: Cellular Assays—Cell Growth Inhibition in PTEN-Deficient Cell Line MDA-MB-468
PTEN deficient tumor cell lines (MDA-MB-468) were cultured generally according to instructions supplied by cell culture supplier American Type Culture Collection, Manassas, Va., with 10% fetal bovine serum at 5% CO2 and 37° C. Cells were seeded into either a T-75 or a T-175 flask 3-4 days prior to 96-well assay plating such that the flasks were approximately 70-80% confluent of the time of harvest. Cells were harvested using 0.25% trypsin-EDTA (Invitrogen #25200056). Trypan Blue exclusion staining was used to determine cell number.
Viable cells were plated in clear, flat bottom 96-well plates (BD #353075) under anchorage independent conditions at 2,000-10,000 cells per well depending on the cell line. To generate anchorage independent growth conditions, a 5% agar stock solution in water was made and autoclaved to melt and sterilize. From the 5% agar solution, a 0.6% agar/media+10% fetal bovine serum (FBS) solution was made to generate a bottom agar layer in the plates to prevent cell attachment. Seventy five microliters per well of the 0.6% agar-media solution was added to the plates. After solidification, a cell solution of 266,870 to 1,334,022 cells (depending on the cell line) in 10 ml of 0.3% agar/media+10% FBS was made and 75 μl of the cell/media/agar suspension was added to the plates. After the cell layer solidified, 50 μl of media+10% FBS was added to the top of the cells. A 0.3% Brij 35 (Sigma B4184) solution in media+10% FBS was added to column 12 as a background subtraction control. The cells were incubated overnight at 5% CO2 and 37° C. The next day one plate of cells was processed at the time of compound addition to quantify the starting number of cells (T=0 or T0).
To generate the compound titration plates, 15 μl of a 2 mM or 20 μl of a 20 mM solution of the compound of example 31 was diluted in clear bottom polypropylene 96-well plate (BD #351190) using a 10 point, 3-fold titration or a 20 point 2-fold titration, respectively. Three hundred microliters of media was added to the compound dilutions. Ten microliters per well of the serial dilutions was added to the cells and the plates incubated for 6 days at 5% CO2 and 37° C. The final concentration of DMSO in all wells was 0.15% and the highest final concentration of the compound of example 31 was 3.7 μM or 30.7 μM.
Following the 6-day incubation, 20 μl of Alamar Blue (Invitrogen #DAL1100) was added to the cells, incubated at 5% CO2 and 37° C. for 6 hours and the plates read on a Spectramax (Gemini EM) at 530 nm (excitation) and 590 nm (emission) with the auto cut-off disabled. For analysis of cell growth inhibition dose response curves, the data was plotted as the percent of the DMSO-treated control samples (DMSO samples set to 100%). The cellular response was determined for compounds and control compounds by fitting the concentration response with a 4 parameter curve fit using XLfit software and determining the concentration that inhibits 50% of the Ymax-Ymin window (EC50). The EC50 is the midpoint of active compound effect window (between Ymax plateau and Ymin plateau of compound) and represents the concentration of the compound of example 31 where 50% of its maximal effect is observed. Values from wells containing 0.3% Brij 35 (under anchorage independent conditions) were subtracted from all samples for background correction.
The compounds listed in Table 3 were tested generally according to the assays described herein. Table 3 lists the EC50 values for either an experimental run or an average of two or more experimental runs with the examples shown.

Structures are written as SMILES.

Consider `Cc1c(Cn2c(C)nc3c(B(O)O)cc(N4CCOCC4)cc32)cccc1C(F)(F)F` [Example 4, (2-methyl-1-(2-methyl-3-(trifluoromethyl)benzyl)-6-morpholino-1H-benzo[d]imidazol-4-yl)boronic acid], for which the IC50 in test [1] came out at 18.7 nM. Further, the concentration for a half-maximal effect (EC50) in test [2] came to 11.1 nM.
In the same order, the values of `Cc1c(Cl)cccc1Cn1c(C)nc2c(B(O)O)cc(N3CCOCC3)cc21` [Example 5, (1-(3-chloro-2-methylbenzyl)-2-methyl-6-morpholino-1H-benzo[d]imidazol-4-yl)boronic acid] are 8.97 nM and 6.7 nM.
In the same order, the values of `Cc1nc2c(B(O)O)cc(N3CCOCC3)cc2n1Cc1cccc2ccccc12` [Example 6, (2-methyl-6-morpholino-1-(naphthalen-1-ylmethyl)-1H-benzo[d]imidazol-4-yl)boronic acid] are 78.2 nM and 22.3 nM.
In test [1], `Cc1cccc(Cn2c(C)nc3c(B(O)O)cc(N4CCOCC4)cc32)c1C` [Example 7, (1-(2,3-dimethylbenzyl)-2-methyl-6-morpholino-1H-benzo[d]imidazol-4-yl)boronic acid] displayed an IC50 of 45.6 nM. For the same compound, the EC50 in test [2] came out at 18.3 nM.
In the same order, the values of `Cc1nc2c(B(O)O)cc(N3CCOCC3)cc2n1Cc1cccc(Cl)c1Cl` [Example 8, (1-(2,3-dichlorobenzyl)-2-methyl-6-morpholino-1H-benzo[d]imidazol-4-yl)boronic acid] are 61 nM and 42 nM.
Compound `Cc1nc2c(B(O)O)cc(N3CCOCC3)cc2n1Cc1cccc2ccsc12` [Example 9] displayed an IC50 in test [1] of 65.8 nM. Besides, the EC50 in test [2] amounted to 88.2 nM.
The like results for `Cc1cccc(Cn2c(C)nc3c(B(O)O)cc(N4CCOCC4)cc32)c1` [Example 10, (2-methyl-1-(3-methylbenzyl)-6-morpholino-1H-benzo[d]imidazol-4-yl)boronic acid] were, in that order, 672 nM and 1880 nM.
The like results for `Cc1ccccc1Cn1c(C)nc2c(B(O)O)cc(N3CCOCC3)cc21` [Example 11, (2-methyl-1-(2-methylbenzyl)-6-morpholino-1H-benzo[d]imidazol-4-yl)boronic acid] were, in that order, 227 nM and 1140 nM.
In the same order, the values of `Cc1nc2c(B(O)O)cc(N3CCOCC3)cc2n1Cc1ccccc1Cl` [Example 12, (1-(2-chlorobenzyl)-2-methyl-6-morpholino-1H-benzo[d]imidazol-4-yl)boronic acid] are 1490 nM and 3580 nM.
Take `Cc1nc2c(B(O)O)cc(N3CCOCC3)cc2n1Cc1cccc(Cl)c1` [Example 13, (1-(3-chlorobenzyl)-2-methyl-6-morpholino-1H-benzo[d]imidazol-4-yl)boronic acid]: inhibition in test [1] was half-maximal at 105 nM (IC50). For the same compound, the EC50 in test [2] stood at 246 nM.
The like results for `Cc1c(Cn2cnc3c(B(O)O)cc(N4CCOCC4)cc32)cccc1C(F)(F)F` [Example 14, (1-(2-methyl-3-(trifluoromethyl)benzyl)-6-morpholino-1H-benzo[d]imidazol-4-yl)boronic acid] were, in that order, 24.4 nM and 62.8 nM.
The like results for `Cc1c(Cl)cccc1Cn1cnc2c(B(O)O)cc(N3CCOCC3)cc21` [Example 15, (1-(3-chloro-2-methylbenzyl)-6-morpholino-1H-benzo[d]imidazol-4-yl)boronic acid] were, in that order, 7.95 nM and 60 nM.
In the same order, the values of `Cc1c(Cn2c(CF)nc3c(B(O)O)cc(N4CCOCC4)cc32)cccc1C(F)(F)F` [Example 16, (2-(fluoromethyl)-1-(2-methyl-3-(trifluoromethyl)benzyl)-6-morpholino-1H-benzo[d]imidazol-4-yl)boronic acid] are 19.1 nM and 21.5 nM.
`Cc1c(Cl)cccc1Cn1c(CF)nc2c(B(O)O)cc(N3CCOCC3)cc21` [Example 17, (1-(3-chloro-2-methylbenzyl)-2-(fluoromethyl)-6-morpholino-1H-benzo[d]imidazol-4-yl)boronic acid] returned a half-inhibitory concentration (IC50) in test [1] of 14.5 nM. The EC50 in test [2] was determined as 17.8 nM.
In the same order, the values of `Cc1c(Cn2c(CO)nc3c(B(O)O)cc(N4CCOCC4)cc32)cccc1C(F)(F)F` [Example 18, (2-(hydroxymethyl)-1-(2-methyl-3-(trifluoromethyl)benzyl)-6-morpholino-1H-benzo[d]imidazol-4-yl)boronic acid] are 6.35 nM and 13.5 nM.
In the same order, the values of `Cc1c(Cl)cccc1Cn1c(C(F)F)nc2c(B(O)O)cc(N3CCOCC3)cc21` [Example 19, (1-(3-chloro-2-methylbenzyl)-2-(difluoromethyl)-6-morpholino-1H-benzo[d]imidazol-4-yl)boronic acid] are 70.9 nM and 31.5 nM.
In the same order, the values of `Cc1c(Cn2c(C(F)F)nc3c(B(O)O)cc(N4CCOCC4)cc32)cccc1C(F)(F)F` [Example 20, (2-(difluoromethyl)-1-(2-methyl-3-(trifluoromethyl)benzyl)-6-morpholino-1H-benzo[d]imidazol-4-yl)boronic acid] are 40.1 nM and 39.8 nM.
As to `Cc1c(Cl)cccc1Cn1c(C(F)(F)F)nc2c(B(O)O)cc(N3CCOCC3)cc21` [Example 21, (1-(3-chloro-2-methylbenzyl)-6-morpholino-2-(trifluoromethyl)-1H-benzo[d]imidazol-4-yl)boronic acid], in test [1], the IC50 came out at 92.9 nM. The EC50 in test [2] worked out at 130 nM.
In the same order, the values of `Cc1c(Cn2c(C(C)C)nc3c(B(O)O)cc(N4CCOCC4)cc32)cccc1C(F)(F)F` [Example 22, (2-isopropyl-1-(2-methyl-3-(trifluoromethyl)benzyl)-6-morpholino-1H-benzo[d]imidazol-4-yl)boronic acid] are 74.6 nM and 161 nM.
`Cc1c(Cn2c(C3CC3)nc3c(B(O)O)cc(N4CCOCC4)cc32)cccc1C(F)(F)F` [Example 23, (2-cyclopropyl-1-(2-methyl-3-(trifluoromethyl)benzyl)-6-morpholino-1H-benzo[d]imidazol-4-yl)boronic acid] returned a 50% inhibitory concentration (IC50) in test [1] of 56.2 nM. Also, the EC50 in test [2] turned out to be 126 nM.
